Experimental data as given in article PMC6874057, “Synthesis of Chalcone Derivatives: Inducing Apoptosis of HepG2 Cells via Regulating Reactive Oxygen Species and Mitochondrial Pathway” (Frontiers in Pharmacology, 2019).

Tests used:
Assay type in all cases: cell-based, human
HepG2 cells [1] = experiment: DAPI staining, morphology of apoptotic cells; conditions: various concentrations, 48 h; in words
Experimental: Firstly, HepG2 cells (3 × 10^5 cells/well) were seeded into six-well plates and kept to attach overnight. Then, the cells were incubated with a14 at different concentrations (0, 30, 50, and 70 µM) for 48 h, washed by ice-cold PBS solution and fixed with 4% paraformaldehyde for 10 min at room temperature. The cells was processed by DAPI (10 µg/ml) for 15 min in the dark, and the residual DAPI was rinsed two more times by ice-cold PBS. Then, the cells were transferred on a glass slide, fixed with a coverslip and placed under a fluorescence microscope (Motic China Group Co., Ltd., Shenzhen, China) to be observed and photographed at an excitation wavelength of 480/30× nm and the emission wavelength of 515 nm. Condensation of chromatin and fragmentation of nuclei could be applied to determine the apoptotic cells.

ROS level in HepG2 cells = experiment: ROS level by DCFH-DA probe, flow cytometry; conditions: a14 50 µM, 8 h (0 h: 4351.6)
Experimental: HepG2 cells were seeded into six-well plates (3 × 10^5 cells/well) overnight to make the cells grow adherently and then incubated with a14 (50 µM) for 0, 3, 6, 8, 9, and 12 h. After that, the cells were added to 1 ml DCFH-DA (10 µM) and incubated for 30 min in the dark. After the cells were washed twice by the pre-cooled PBS, the cells were trypsinized and collected by centrifugation. The cells of the blank group were implemented the same experimental procedures, except for the process with a14. Besides, 5 mM N-acetyl-L-cysteine (NAC) was applied as anti-oxidative substance to prevent the oxidation of the cells, which could entirely block the production of ROS induced by a14. The generation levels of ROS were evaluated in fluorescence intensity (FL-1, 530 nm) by Beckman Coulter flow cytometer (Beckman Coulter, Inc. California). The data collected was analyzed using the CytExpert 2.0 software embedded in Beckman flow cytometry, and the histogram was plotted by Origin Pro8.

A549 = experiment: MTT cell viability assay, A549; conditions: Homo sapiens, A549, 48 h, mean ± SE
Experimental: HeLa, A549, HepG2, HL-60, and WI-38 cell lines were incubated in DMEM solution containing 10% FBS for 48 h. The incubated tumor cells were seeded into 96-well plates (5 × 10^3 cells/well) to make them attach for 12 h. Afterwards, the cells were processed with the various concentrations of the synthetic compounds and 5-FU for 48 h. After removing the cell culture supernatant, 10 µl MTT (5 mg/ml) solution was dripped into the cells to generate a formazan product, which were dissolved by dimethyl sulfoxide (DMSO) 4 h later. Multifunction microplate reader (Bio-Rad Laboratories, Shanghai, China) was adopted to measure the absorbance at the wave length of 490 nm. The IC50 (the lowest drug concentration causing 50% of the tumor cells inhibition) was then calculated using GraphPad Prism Software (version 5.02) and used to indicate the cytotoxic effect of the target compounds on the selected tumor cells.

Bcl-2 in HepG2 cells = experiment: Western blot, Bcl-2; conditions: different concentrations, 48 h, dose-dependent; in words
Experimental: (§1) HepG2 cells (3 × 10^5 cells/well) were seeded into a six-well plate overnight for adherence, and then treated with a14 (0, 30, 40, 50, 60, and 70 µM) for 48 h. After the cells were collected by centrifugation, they were lysed with the radio immunoprecipitation assay (RIPA) buffer (high) containing 50 mM Tris (pH = 7.4), 150 mM NaCl, 1% TritonX-100, 1% sodium deoxycholate, 0.1% sodium dodecyl sulfate (SDS), 2 mM sodium pyrophosphate, 25 mM β-glycerophosphate, 1 mM ethylenediaminetetraacetic acid (EDTA), 1 mM Na3VO4, and 0.5 ug/ml leupeptin (Beijing Solarbio Science & Technology Co., Ltd.).The extract was then centrifuged at 12,000 rpm for 30 min and the total protein concentration was quantified using the BCA kit (Beijing Solarbio Science & Technology Co., Ltd.). The protein extracts were mixed with the SDS-PAGE protein loading buffer (Beijing Solarbio Science & Technology Co., Ltd.) and then boiled in 100°C water bath for 10 min. The gel was gelatinized using an SDS Gel Kit (Beijing Solarbio Science & Technology Co., Ltd.) and protein extracts were separated by protein SDS-polyacrylamide gel electrophoresis and transferred to Immobilon-NC Membrane (Beijing Solarbio Science & Technology Co., Ltd.). […]

Bax in HepG2 cells = experiment: Western blot, Bax; conditions: different concentrations, 48 h, dose-dependent; in words
Experimental: as §1

HepG2 cells [2] = experiment: Inhibition curve of a14 on HepG2 cells (MTT, 24, 48, 72 h); conditions: in words
Experimental: HepG2 cells (5 × 10^3 cells/well) were seeded into the 96-well plates and kept to attach overnight. […] After the incubation time, 10 µl MTT was added to each well, and the culture was continued in a sterile incubator at 37°C for 4 h under the environment of 5% CO2. Then, the supernatant medium was discarded, and the solid was dissolved in 200 µl DMSO. Then, a multifunction microplate reader (Bio-Rad Laboratories, Shanghai, China) was applied to record the absorbance at 490 nm. Cell growth inhibition rates at different concentrations were calculated and plotted using Origin Pro8 software. Each set of data represented the average value of three independent experiments.

Caspase 3 in HepG2 cells = experiment: Western blot, Caspase 3; conditions: 48 h, compared to the control group; in words
Experimental: as §1

With `COc1cc(/C=C/C(=O)c2ccc(O)c(C(N)=O)c2)cc(OC)c1OC` [a14] the “morphological changes of the nucleus (DAPI)” value (HepG2 cells [1]) was “a large number of nuclear condensation and nuclear fragmentation”, the “intracellular fluorescence intensity (DCFH-DA)” value (ROS level in HepG2 cells) was 236197.3 and the IC50 (A549) was 36.7 ± 1.08 µM. The “expression of anti-apoptotic proteins (Bcl-2)” value (Bcl-2 in HepG2 cells) was “down-regulated”, the “expression of pro-apoptotic proteins (Bax)” value (Bax in HepG2 cells) was “up-regulated” and the “inhibitory activities on HepG2 cells” value (HepG2 cells [2]; 24, 48, 72 h, different concentrations) was “dose- and time-dependent manner”. For the same molecule, the “growth inhibition effect on HepG2 cells” value (HepG2 cells [2]; action time 48 or 72 h) was “significantly improved”, the “cytotoxic effect on HepG2 cells” value (HepG2 cells [2]; action time less than 24 h) was “relatively weak” and the “expression level of Caspases 3” value (Caspase 3 in HepG2 cells) was “decrease”.
